Counter-ions that a name gives are not always drawn. Like-named read-outs stand apart in the source and are kept apart here.

The target of experiment [1] is Protein kinase C from mouse brain. Briefly: Inhibition of PKC phosphorylation of histone. In kind it is biochemical. As for the experimental part: Protein kinase C from mouse brain was used in the screening protocol since it contains several isozymes of the enzyme. The tissue was prepared by homogenizing two mouse brains minus the cerebelli in 5 ml of 25 mM Tris-HCl,pH 7.4, containing 2 mM ethylenediamine tetraacetic acid (EDTA) and 1 mM ethylene glycol tetraacetic acid (EGTA), using a polytron at setting 5 for 15 seconds. The homogenate was centrifuged for 1 hour at 50,000×g at 4° C. The supernatant was used as the source of enzyme. The standard reaction mixture (250 μl) contained 20 mM Tris-HCl,pH 7.5, 10 mM Mg (CH3 COO)2, 400 μM CaCl2, 0.1 mM EGTA, […] [γ-^32 P] ATP (1200 cpm/pmol), 100 μg/ml phosphatidylserine, 10 μM histone, 1 μM phorbol 12-myristate-13-acetate, 10 μl enzyme preparation and 25 μl water or test drug. The mixture was incubated at 30° C. for 5 minutes. Mixtures were removed to an ice-bath, a 50 μl aliquot of each was added to Whatman P81 paper and washed in 10% TCA for 20 minutes. The paper was then washed with ethanol, followed by ethyl ether and finally air dryed. PKC activity was quantitated by liquid scintillation counting.

In experiment [2] the test system is Protein kinase A catalytic subunit. Briefly: Inhibition of protein kinase A phosphorylation of histone. In kind it is biochemical. To be noted: for PKA percent inhibition (phosphorylation of histone): percent inhibition at the maximum concentration tested 100 μM.
Method: Protein kinase A activity was determined as follows. Protein kinase A catalytic subunit was purchased from Sigma Chemical Company. […] Incubation was at 30° C. for 5 minutes, then the assay was completed as described for protein kinase C above.
Experiment [3] relates to protein kinase C from mouse brains. Briefly: 3H-Phorbol dibutyrate binding (inhibition of binding of phorbol ester to protein kinase C). To be noted: for IC50: IC50 determined with program EBDA. As for the experimental part: The ability of active compounds to inhibit the binding of phorbol ester to protein kinase C from mouse brains was measured as follows. Mouse brains were homogenized in ice-cold 50 mM Tris buffer, pH 7.4, containing 0.5 mM CaCl2, in a 15 mL Dounce homogenizer with 10 gentle strokes. The homogenate was centrifuged at 100,000×g for 1 hour at 4° C. The pellets were resuspended in 25 mL of the same ice-cold buffer and protein concentration was adjusted to 0.4 mg/mL. To each binding tube was added […] of the buffer, […] of [20-^3 H]Phorbol 12,13-dibutyrate, […] final concentration in assay, […] of test drug or displacing ligand, 50 uL of 50 mM Tris, pH 7.4 at 25° C. containing 1% bovine serum albumin, and […] enzyme preparation. Tubes were incubated at 37° C. for 30 minutes, then terminated by filtration onto Whatman GF/B glass fiber filters followed by washing with 2 mL ice-cold 50 mM Tris, pH 7.4, four times. Nonspecific binding was defined as that binding occurring in the presence of 1 mM phorbol ester. Percent inhibition was determined for each inhibitor candidate, and IC50 values were determined using the computer program "EBDA".

Where [4] appears, read: mouse brain PKC, histone, 30° C., 5 minutes, read-out: PKC IC50 (phosphorylation of histone).
[5] abbreviates: text summary of Table IV, read-out: IC50, inhibition of phosphorylation by PKC.

For `CCCCCCCCCCCCC(=O)N1CCCCC1CNC(=O)[C@@H](N)CCCCN` (stereo partly shown) [2,6-diamino-N-([1-(1-oxotridecyl)-2-piperidinyl]methyl)hexan] [2,6-Diamino-N-([1-(1-oxotridecyl)-2-piperidinyl]methyl)hexanamide dihydrochloride], the IC50 (commonly the midpoint of a concentration-inhibition curve) in experiment [1] (setting [4]) stood at 13 µM; in experiment [1] (setting [5]), 13 µM; in experiment [3] (dihydrochloride), 191 µM. For the same molecule, in experiment [2], the “PKA percent inhibition (phosphorylation of histone)” value (from here on “PKA percent inhibition”) worked out at 0%. Besides, in experiment [3] (dihydrochloride), the “% inhibition @ 100 μM (3H-phorbol dibutyrate binding)” value (shortened to “% inhibition @ 100 μM”) is 22%.
On to `CCCCCCCCCCCCC(=O)N1CCCCC1CNC(=O)[C@@H](N)CCCCN` (stereo partly shown) [2,6-diamino-N-([1-(1-oxotridecyl)-2-piperidinyl]methylhexana] [2,6-diamino-N-([1-(1-oxotridecyl)-2-piperidinyl]methylhexanamidedihydrochloride], for which, in experiment [3] (dihydrochloride), the “% inhibition @ 100 μM” value is listed as 47% and the IC50 worked out at 133 µM.
For `CCCCCCCCCCCCC(=O)N1CCCCC1CNC(=O)[C@@H](N)CO` (stereo partly shown) [2-Amino-3-hydroxy-N-([1-(1-oxotridecyl)-2-piperidinyl]methyl)propanamide hydrochloride], the IC50 in experiment [1] (setting [4]) is 44 µM. For the same molecule, the “PKA percent inhibition” value in experiment [2] amounted to 0%. For the same molecule, the “% inhibition @ 100 μM” value in experiment [3] was found to be 9%.
Consider `CCCCCCCCCCCCC(=O)N1CCCCC1CNC(=O)[C@@H](N)Cc1c[nH]cn1` (stereo partly shown) [2-Amino-N-([1-(1-oxotridecyl)-2-piperidinyl]methyl)-3-(1H-imidazol-4-yl)propanamide dihydrochloride], for which the results for the IC50 in experiment [1] (setting [4]) and in experiment [3] were 60 µM and 343 µM, respectively. For the same molecule, in experiment [2], the “PKA percent inhibition” value was determined as 0%. For the same molecule, in experiment [3], the “% inhibition @ 100 μM” value came out at 28%.
As to `CCCCCCCCCCCCC(=O)N1CCCCC1CNC(=O)CN.Cl` (stereo not shown) [2-Amino-N-([1-(1-oxotridecyl)-2-piperidinyl]methyl)ethanamide hydrochloride], in experiment [1] (setting [4]), the IC50 was 51 µM. Also, the “PKA percent inhibition” value in experiment [2] stood at 0%. Further, in experiment [3], the “% inhibition @ 100 μM” value came out at 21%.
For `CCCCCCCCCCCCC(=O)N1CCCCC1CNC(=O)[C@H](C)N` (stereo partly shown) [2-Amino-N-([1-(1-oxotridecyl)-2-piperidinyl]methyl)propanamide hydrochloride], the IC50 in experiment [1] (setting [4]) was 52 µM. The “PKA percent inhibition” value in experiment [2] was determined as 0%. Also, in experiment [3], the “% inhibition @ 100 μM” value was 49%.
As for `CCCCCCCCCCCCC(=O)N1CCCCC1CNC(=O)[C@@H](N)CCCN` (stereo partly shown) [2.5-Diamino-N-([1-(1-oxotridecyl)-2-piperidinyl]methyl)pentanamide dihydrochloride], the IC50 in experiment [1] (setting [4]) is 18 µM. Also, in experiment [2], the “PKA percent inhibition” value came out at 0%.
In the case of `CCCCCCCCCCCC(=O)N1CCC[C@H]1CNC(=O)[C@@H](N)CCCCN` [2.6-Diamino-N-([1-(1-oxododecyl)-2-pyrrolidinyl]methyl)hexanamide dihydrochloride], in experiment [1] (setting [4]), the half-maximal inhibitory concentration (IC50) turned out to be 46 µM. For the same molecule, the “PKA percent inhibition” value in experiment [2] was 0%.
As for `CCCCCCCCCCCCC(=O)N1CCCCC1CNC(=O)[C@@H](N)CC(=O)OCc1ccccc1` (stereo partly shown) [3-Amino-4-oxo-4-[([1-(1-oxotridecyl)-2-piperidinyl]methyl)amino]butanoic acid phenylmethyl ester hydrochloride], the IC50 in experiment [1] (setting [4]) and in experiment [1] (setting [5]) was 92 µM in each case. Besides, in experiment [2], the “PKA percent inhibition” value was determined as 0%. Also, the “% inhibition @ 100 μM” value in experiment [3] is given as 2%.
With `CCCCCCCCCCCCC(=O)N1CCCCC1CNC(=O)CCN.O=C(O)/C=C/C(=O)O` (stereo not shown) [3-Amino-N-([1-(1-oxotridecyl)-2-piperidinyl]methyl)propanamide fumarate], the IC50 in experiment [1] (setting [4]) stood at 36 µM; in experiment [3] it was 139 µM. Moreover, the “PKA percent inhibition” value in experiment [2] is listed as 0%. Also, in experiment [3], the “% inhibition @ 100 μM” value amounted to 45%.
For `CCCCCCCCCCCCC(=O)N1CCCCC1CNC(=O)[C@@H](N)CCC(N)=O` (stereo partly shown) [4-Amino-5-oxo-5-[([1-(1-oxotridecyl)-2-piperidinyl]methyl)amino]pentanamide hydrochloride], the IC50 in experiment [1] (setting [4]) amounted to 72 µM. Also, the “PKA percent inhibition” value in experiment [2] is reported as 0%. Also, the “% inhibition @ 100 μM” value in experiment [3] was 17%.
For `CC1CNCCN1S(=O)(=O)c1cccc2cnccc12` (stereo not shown) [Example H-7, reference compound], the IC50 in experiment [1] (setting [4]) came to 9 µM; in experiment [2] (reference standards only, read-out: PKA IC50 (phosphorylation of histone)), 28 µM.
On to `CCCCCCCCCCCCC(=O)N1CCCCC1CNC(=O)C1CCCNC1` (stereo not shown) [N-[([1-Oxotridecyl)-2-piperidinyl]methyl)amino]3-methyloxopiperidine hydrochloride], for which the IC50 in experiment [1] (setting [4]) amounted to 29 µM. Moreover, the “PKA percent inhibition” value in experiment [2] is 0%. In experiment [3], the “% inhibition @ 100 μM” value is 34% and the IC50 came to 157 µM.
Take `CCCCCCCCCCCCC/C=C/[C@@H](O)[C@@H](N)CO` [Sphingosine, reference compound]: in experiment [1] (setting [4]), the IC50 was determined as 15 µM. Further, the “PKA percent inhibition” value in experiment [2] is 88%.
